Test results taken from patent publication US20240246964A1 (Arbutus Biopharma Corporation, priority 2021, published 2024).

What was measured:
[1] = target: PD-L1 His protein / PD-1 Fc protein (Homo sapiens (Human), UniProt Q9NZQ7); assay: HTRF Assay (PD-1/PD-L1 interaction); format: binding; details: PD-L1 His 6 nM, PD-1 Fc 6 nM
human PD-L1 = human PD-L1 (Homo sapiens (Human), UniProt Q9NZQ7); assay: T cell activation luciferase reporter cell culture system (T Cell Activation Assay); format: cell-based; details: luciferase reporter assay; PD-L1 aAPC/CHO-K1 cells with PD-1 effector Jurkat T cells
Sequence of human PD-L1 (Q9NZQ7 19-290): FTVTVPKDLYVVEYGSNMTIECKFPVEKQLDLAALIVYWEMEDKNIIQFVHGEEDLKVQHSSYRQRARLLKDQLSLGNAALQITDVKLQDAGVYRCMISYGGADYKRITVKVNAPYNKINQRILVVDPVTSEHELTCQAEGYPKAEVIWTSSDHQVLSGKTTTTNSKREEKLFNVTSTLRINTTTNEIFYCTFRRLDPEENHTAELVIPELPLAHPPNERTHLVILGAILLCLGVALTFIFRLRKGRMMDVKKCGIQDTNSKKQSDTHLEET

Sequence of PD-L1 His protein / PD-1 Fc protein (Q9NZQ7 19-238): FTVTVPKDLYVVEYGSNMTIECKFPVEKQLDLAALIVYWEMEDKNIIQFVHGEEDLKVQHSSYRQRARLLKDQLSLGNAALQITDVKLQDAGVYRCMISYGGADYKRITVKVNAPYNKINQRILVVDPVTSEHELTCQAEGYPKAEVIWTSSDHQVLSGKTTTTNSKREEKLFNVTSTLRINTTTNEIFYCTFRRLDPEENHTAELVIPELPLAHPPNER

In the case of `COc1nc(-c2cccc(-c3ccnc(-c4ccc5c(c4)CCC[C@@H]5NC[C@@H]4CCC(=O)N4)c3Cl)c2Cl)ccc1CNC[C@@H]1CCC(=O)N1` [Compound 184, (S)-5-((((6-(2-chloro-3-(3-chloro-2-((S)-5-((((S)-5-oxopyrrolidin-2-yl)methyl)amino)-5,6,7,8-tetrahydronaphthalen-2-yl)pyridine-4-yl)phenyl)-2-methoxypyridin-3-yl)methyl)amino)methyl)pyridine1335ne-2-one], the IC50 [1] is reported as 15.5 nM and the EC50 (human PD-L1) is reported as 80.4 nM.

Molecule `COc1nc(-c2cccc(-c3ccnc(-c4ccc5c(c4)CCC[C@H]5NC[C@@H]4CCC(=O)N4)c3Cl)c2Cl)ccc1CNC[C@@H]1CCC(=O)N1` [Compound 185, (S)-5-((((6-(2-chloro-3-(3-chloro-2-((R)-5-((((S)-5-oxopyrrolidin-2-yl)methyl)amino)-5,6,7,8-tetrahydronaphthalen-2-yl)pyridine-4-yl)phenyl)-2-methoxypyridin-3-yl)methyl)amino)methyl)pyridine1335ne-2-one] has an IC50 [1] of 10.1 nM and an EC50 (human PD-L1) of 19.3 nM.

Molecule `COc1cc(-c2nccc(-c3cccc(-c4ccc5c(OC)c(CNC[C@H](C)O)cc(Cl)c5n4)c3Cl)c2Cl)ccc1CNC[C@@H]1CCC(=O)N1` [Compound 206, (S)-5-(((4-(3-chloro-4-(2-chloro-3-(8-chloro-6-((((S)-2-hydroxypropyl)amino)methyl)-5-methoxyquinolin-2-yl)phenyl)pyridin-2-yl)-2-methoxybenzyl)amino)methyl)pyrrolidin-2-one] has an IC50 [1] of 0.856 nM and an EC50 (human PD-L1) of 182 nM.

`COc1cc(-c2nccc(-c3cccc(-c4ccc5c(OC)c(CNC[C@@H]6CCC(=O)N6)cc(Cl)c5n4)c3Cl)c2Cl)ccc1CNC[C@@H]1CCC(=O)N1` [Compound 207, (S)-5-((((8-chloro-2-(2-chloro-3-(3-chloro-2-(3-methoxy-4-(((((S)-5-oxopyrrolidin-2-yl)methyl)amino)methyl)phenyl)pyridin-4-yl)phenyl)-5-methoxyquinolin-6-yl)methyl)amino)methyl)pyrrolidin-2-one] showed an IC50 [1] of 7.66 nM and an EC50 (human PD-L1) of 118 nM.

In the case of `COc1nc(-c2cccc(-c3ccnc(-c4cc(Cl)c5c(c4)CCN(CCC(C)(C)O)C5)c3Cl)c2Cl)ccc1CNC[C@@H]1CCC(=O)N1` [Compound 208, (S)-5-((((6-(2-chloro-3-(3-chloro-2-(8-chloro-2-(3-hydroxy-3-methylbutyl)-1,2,3,4-tetrahydroisoquinolin-6-yl)pyridin-4-yl)phenyl)-2-methoxypyridin-3-yl)methyl)amino)methyl)pyrrolidin-2-one], the IC50 [1] is reported as 8.04 nM and the EC50 (human PD-L1) is reported as 82 nM.

Work on `COc1cc(-c2nccc(-c3cccc(-c4ccc(C5=NCCN5)c(OC)n4)c3Cl)c2Cl)ccc1CNC[C@@H](O)CC(=O)OC(C)C` [Compound 209, isopropyl (S)-4-((4-(3-chloro-4-(2-chloro-3-(5-(4,5-dihydro-1H-imidazol-2-yl)-6-methoxypyridin-2-yl)phenyl)pyridin-2-yl)-2-methoxybenzyl)amino)-3-hydroxybutanoate] yielded an IC50 [1] of 22.8 nM and an EC50 (human PD-L1) of at least 10000 nM.

`COc1cc(-c2nccc(-c3cccc(-c4ccc(CNC[C@@H]5CCC(=O)N5)c(OC)n4)c3Cl)c2Cl)cc(F)c1CNC1CC2(C1)CN(C(C)=O)C2` [Compound 210, (S)-5-((((6-(3-(2-(4-(((2-acetyl-2-azaspiro[3.3]heptan-6-yl)amino)methyl)-3-fluoro-5-methoxyphenyl)-3-chloropyridin-4-yl)-2-chlorophenyl)-2-methoxypyridin-3-yl)methyl)amino)methyl)pyrrolidin-2-one] showed an IC50 [1] of 2.12 nM and an EC50 (human PD-L1) of 26.6 nM.

`CNCc1ccc(-c2cccc(-c3ccnc(-c4ccc(CNC(C)C)c(OC)c4)c3Cl)c2Cl)nc1OC` [Compound 211, N-(4-(3-chloro-4-(2-chloro-3-(6-methoxy-5-((methylamino)methyl)pyridin-2-yl)phenyl)pyridin-2-yl)-2-methoxybenzyl)propan-2-amine] gave an IC50 [1] of 4.2 nM and an EC50 (human PD-L1) of 56.2 nM.
